System: BSC cells SV40 infection, CPE inhibition
Test: antiviral efficacy and BSC cell toxicity – BSC cells, SV40 T antigen inhibitor project, confirmation (AID 2615)
Conditions: measured here: cytotoxicity in BSC cells

ClC(Cl)(c1nnnn1-c1ccccc1)c1nnnn1-c1ccccc1
TC50: 34 µM
